Measurements reported in US20100311084A1, “METHODS FOR PREDICTING A PATIENT'S RESPONSE TO EGFR INHIBITORS” (PRECISION THERAPEUTICS, INC., priority 2008, published 2010).
Counter-ions that a name gives are not always drawn.

Assays:
H292 = test: ChemoFx chemoresponse assay, erlotinib, H292 cell line; assay type: cell-based, human; conditions: Log EC50 by dose number, mean of 3 assays
Method: (§1) Three human lung tumor-derived immortalized cell lines were tested in this study: H292, H358, and Calu3 (American Type Culture Collection, Manassas, Va.). These cell lines were seeded at 40,000 cells in T25 flasks (PGC Scientifics, Frederick, Md.) and allowed to grow for one week to approximately 90% confluence.
(§2) Cell lines and tissue specimens were processed and tested with the ChemoFx® assay as described elsewhere. Also see, U.S. Pat. Nos. 5,728,541, 6,900,027, 6,887,680, 6,933,129, 6,416,967, 7,112,415, and 7,314,731; and U.S. application Ser. Nos. 10/399,563, 11/504,098, 11/595,967, 11/713,662, and 11/785,984, all of which are hereby incorporated by reference in their entireties, and especially with regard to tissue processing and cell culturing techniques, and assays. Ten doses of erlotinib were prepared by serial dilution. The same 10-dose concentration range was used for the cell lines and the tissue specimens. For each dose, a cytotoxic index (CI) was calculated according to the following formula: CI=Mean cell countdose x/mean cell countcontrol, which represents the ratio of cells killed as a result of the treatment. Cell counts were the average of 3 replicates at each dose for primary cultures and 9 replicates at each dose for immortalized cell lines. […] Adjusted areas under the curve (aAUC) were calculated for each dose-response curve as previously described.

Calu-3 = test: ChemoFx chemoresponse assay, erlotinib, Calu-3 cell line; assay type: cell-based, human; conditions: Calu3; Log EC50 by dose number, mean of 3 assays
Method: as §1, §2

H358 = test: ChemoFx chemoresponse assay, erlotinib, H358 cell line; assay type: cell-based, human; conditions: Log EC50 by dose number, mean of 3 assays
Method: as §1, §2

[1] = system: primary cultures of lung cancer; test: ChemoFx chemoresponse assay, erlotinib, primary cultures of lung cancer; assay type: cell-based, human; conditions: 34 lung cancer tumors; 72-hour treatment
Excerpt: Patient tumor specimens: Primary cell cultures were established using tumor specimens procured for research purposes from the following sources: National Disease Research Interchange (Philadelphia, Pa.), Cooperative Human Tissue Network (Philadelphia, Pa.), Forbes Regional Hospital (Monroeville, Pa.), Jameson Hospital (New Castle, Pa.), Saint Barnabas Medical Center (Livingston, N.J.), Hamot Medical Center (Erie, Pa.), and Windber Research Institute (Windber, Pa.). The tumors were removed from the patient at the time of surgery, placed in the supplied 125-mL bottle containing sterile McCoy's shipping medium (Mediatech, Herndon, Va.), and shipped overnight to Precision Therapeutics, Inc. laboratories (Pittsburgh, Pa.).
Cell lines and tissue specimens were processed and tested with the ChemoFx® assay as described elsewhere. Also see, U.S. Pat. Nos. 5,728,541, 6,900,027, 6,887,680, 6,933,129, 6,416,967, 7,112,415, and 7,314,731; and U.S. application Ser. Nos. 10/399,563, 11/504,098, 11/595,967, 11/713,662, and 11/785,984, all of which are hereby incorporated by reference in their entireties, and especially with regard to tissue processing and cell culturing techniques, and assays. Ten doses of erlotinib were prepared by serial dilution. The same 10-dose concentration range was used for the cell lines and the tissue specimens. For each dose, a cytotoxic index (CI) was calculated according to the following formula: CI=Mean cell countdose x/mean cell countcontrol, which represents the ratio of cells killed as a result of the treatment. Cell counts were the average of 3 replicates at each dose for primary cultures and 9 replicates at each dose for immortalized cell lines. Dose response curves were generated using the CI at each dose. Adjusted areas under the curve (aAUC) were calculated for each dose-response curve as previously described.

H292 xenograft = conditions: tumor growth inhibition; cited from earlier work
Calu3 xenograft = conditions: tumor growth inhibition; cited from earlier work
H358 xenograft = conditions: tumor growth inhibition; cited from earlier work
BT474 = test: Chemoresponse assay, lapatinib, BT474; assay type: cell-based
Method: (§3) The chemoresponse assay for lapatinib was developed using four different immortalized cell lines (SK-OV3, BT474, MDA-MB-231, MCF7). In addition to cell lines, the chemoresponse assay was also performed on 55 primary cultures of breast carcinomas. […] Cell lines and specimens were treated with a 10 dose concentration range of lapatinib for 72 hours and stained with DAPI; remaining live cells were counted on an inverted fluorescent microscope.

MDA-MB-231 = test: Chemoresponse assay, lapatinib, MDA-MB-231; assay type: cell-based; conditions: 72 hours
Method: as §3

MCF7 = test: Chemoresponse assay, lapatinib, MCF7; assay type: cell-based; conditions: 72 hours
Method: as §3

SK-OV3 = test: Chemoresponse assay, lapatinib, SK-OV3; assay type: cell-based
Method: as §3

[2] = system: primary cultures of breast carcinomas; test: Chemoresponse assay, lapatinib, primary cultures of breast carcinomas; assay type: cell-based, human; conditions: 55 primary breast cultures; 72 hours
Method: as §3

Row | Compound | Mean (Log EC50*) (H292) [dose number] | Mean (Log EC50*) (Calu-3) [dose number] | Mean (Log EC50*) (H358) [dose number] | specimens Intermediate Responsive to erlotinib [1] [%] | specimens Non-Responsive to erlotinib [1] [%] | specimens Responsive to erlotinib [1] [%] | Xenograft TGI (%) [22] (H292 xenograft) [%] | Xenograft TGI (%) [22] (Calu3 xenograft) [%] | Xenograft TGI (%) [22] (H358 xenograft) [%] | response to lapatinib treatment (BT474; 72 hours) | EC50 (BT474; Homo sapiens, BT-474, 72 hours) [µM] | response to lapatinib treatment (MDA-MB-231) | EC50 (MDA-MB-231; Homo sapiens) [µM] | response to lapatinib treatment (MCF7) | EC50 (MCF7; Homo sapiens) [µM] | response to lapatinib treatment (SK-OV3; 72 hours) | EC50 (SK-OV3; Homo sapiens, SK-OV-3, 72 hours) [µM] | specimens non-responsive to lapatinib [2] [%] | specimens responsive to lapatinib [2] [%] | specimens with intermediate response to lapatinib [2] [%]
1 | C#Cc1cccc(Nc2ncnc3cc(OCCOC)c(OCCOC)cc23)c1 [erlotinib, Erlotinib hydrochloride] | 4.731 | 6.715 | 5.925 | 20.6 | 70.6 | 8.8 | 85 | 67 | 25 |  |  |  |  |  |  |  |  |  |  | 
2 | CS(=O)(=O)CCNCc1ccc(-c2ccc3ncnc(Nc4ccc(OCc5cccc(F)c5)c(Cl)c4)c3c2)o1 [lapatinib, Lapatinib] |  |  |  |  |  |  |  |  |  | responsive | ~10 | responsive | ~10 | responsive | ~10 | responsive | ~10 | 76 | 9 | 15
